ChEMBL document CHEMBL1144838, “Use of lantibiotic synthetases for the preparation of bioactive constrained peptides” (Bioorg Med Chem Lett, 2008)
Non-standard residues stand in square brackets, D forms with d. Residues, ends and D or L forms follow the SMILES beside them. Dha = C=C(N)C(=O)O

What was measured:
[1] = species: Mus musculus; experiment: Agonist activity at mouse delta opioid receptor in mouse model; assay type: functional
[2] = species: Mus musculus; experiment: Agonist activity at mu opioid receptor in mouse model; assay type: functional
[3] = molecular target: Tripeptidyl-peptidase 2 (Homo sapiens, UniProt P29144); experiment: Inhibition of human tripeptidyl peptidase2 from erythrocytes
Sequence of Tripeptidyl-peptidase 2 (P29144 whole entry): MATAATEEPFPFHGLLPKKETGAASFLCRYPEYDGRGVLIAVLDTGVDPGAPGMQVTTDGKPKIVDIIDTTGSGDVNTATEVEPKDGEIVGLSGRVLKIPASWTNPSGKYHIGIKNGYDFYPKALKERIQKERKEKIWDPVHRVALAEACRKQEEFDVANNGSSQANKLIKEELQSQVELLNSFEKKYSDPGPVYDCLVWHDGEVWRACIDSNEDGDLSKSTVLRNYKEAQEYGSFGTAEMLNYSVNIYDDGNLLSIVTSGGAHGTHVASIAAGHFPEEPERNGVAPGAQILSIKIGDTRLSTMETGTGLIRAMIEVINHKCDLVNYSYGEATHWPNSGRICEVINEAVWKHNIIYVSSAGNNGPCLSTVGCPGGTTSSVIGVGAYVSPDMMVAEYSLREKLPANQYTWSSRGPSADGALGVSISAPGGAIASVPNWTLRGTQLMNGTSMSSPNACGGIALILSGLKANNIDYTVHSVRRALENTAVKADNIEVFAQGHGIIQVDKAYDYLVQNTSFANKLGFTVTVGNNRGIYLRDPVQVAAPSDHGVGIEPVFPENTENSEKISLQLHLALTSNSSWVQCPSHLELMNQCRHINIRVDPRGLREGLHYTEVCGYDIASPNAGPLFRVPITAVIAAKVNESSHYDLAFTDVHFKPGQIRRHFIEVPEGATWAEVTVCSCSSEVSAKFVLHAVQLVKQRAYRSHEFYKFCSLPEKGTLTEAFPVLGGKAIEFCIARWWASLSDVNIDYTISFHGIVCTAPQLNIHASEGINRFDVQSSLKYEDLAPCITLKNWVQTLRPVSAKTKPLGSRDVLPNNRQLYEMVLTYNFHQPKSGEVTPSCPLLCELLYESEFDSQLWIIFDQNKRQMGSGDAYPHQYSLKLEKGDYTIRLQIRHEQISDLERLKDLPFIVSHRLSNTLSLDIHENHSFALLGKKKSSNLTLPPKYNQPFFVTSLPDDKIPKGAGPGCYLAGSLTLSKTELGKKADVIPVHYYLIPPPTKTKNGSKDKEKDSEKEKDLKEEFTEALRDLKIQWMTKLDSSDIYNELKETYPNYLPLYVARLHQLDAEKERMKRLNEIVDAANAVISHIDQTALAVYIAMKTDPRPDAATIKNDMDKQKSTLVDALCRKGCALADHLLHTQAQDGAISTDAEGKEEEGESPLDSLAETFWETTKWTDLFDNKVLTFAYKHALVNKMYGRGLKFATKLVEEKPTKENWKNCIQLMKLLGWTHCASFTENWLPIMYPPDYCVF

Compound	ED50 [1]	ED50 [2]	Ki [3]
CN1CC[C@]23c4c5ccc(O)c4O[C@H]2[C@@H](O)C=C[C@H]3[C@H]1C5 [MORPHINE]	15 nM	15 nM	–
C=C(NC(=O)[C@H](C)NC(=O)[C@@H](N)CCCNC(=N)N)C(=O)N[C@H](C(=O)N[C@@H](C)C(=O)O)C(C)C (H-RA[Dha]VA-OH)	–	–	20 nM
N[C@@H](Cc1ccc(O)cc1)C(=O)N[C@@H]1CSC[C@@H](C(=O)O)NC(=O)[C@H](Cc2ccccc2)NC(=O)CNC1=O	0.0018 nM	0.0018 nM	–
